Target: human MER (528-end) (Homo sapiens (Human), UniProt Q12866)
Assay: HTRF Kinase Activity Biochemical Assay (KinEASE-TK)
Details: 10 uM ATP
Procedure, shortened: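 Recombinant human MER (528-end) phosphorylated biotin-TK peptide substrate, 1 h at room temperature. Reaction stopped with detection buffer containing 0.375 nM Eu3+-cryptate anti-TK antibody and 0.062 uM streptavidin-XL665, 1 h further. Activity taken as HTRF ratio 665/620 nm ×10,000, 340 nm excitation.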

Chain of human MER (528-end) (Q12866 528-999 limits assumed): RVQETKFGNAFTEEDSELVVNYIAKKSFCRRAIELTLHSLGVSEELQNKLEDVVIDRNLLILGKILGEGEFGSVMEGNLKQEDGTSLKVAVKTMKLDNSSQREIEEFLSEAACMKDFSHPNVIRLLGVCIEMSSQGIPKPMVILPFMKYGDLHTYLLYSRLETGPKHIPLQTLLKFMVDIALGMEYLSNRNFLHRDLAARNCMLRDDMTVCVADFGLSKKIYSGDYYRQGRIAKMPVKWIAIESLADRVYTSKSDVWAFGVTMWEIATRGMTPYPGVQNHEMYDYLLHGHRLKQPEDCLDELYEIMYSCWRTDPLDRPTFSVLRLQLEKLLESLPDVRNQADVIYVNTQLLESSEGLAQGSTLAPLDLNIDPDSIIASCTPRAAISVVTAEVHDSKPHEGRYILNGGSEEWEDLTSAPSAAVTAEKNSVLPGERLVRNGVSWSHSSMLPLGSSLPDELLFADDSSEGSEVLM

| Compound | IC50 [nM] |
| --- | --- |
| Cn1cc(-c2cncc(C(=O)N[C@@H]3CCN(C(=O)Nc4cc(Cl)cc(Cl)c4)C3)c2)cn1 [Example 22, (R)—N-(1-((3,5-dichlorophenyl)carbamoyl)pyrrolidin-3-yl)-5-(1-methyl-1H-pyrazol-4-yl)nicotinamide] | > 1000 |
| CN(C)Cc1cccc(-c2cccc(NC(=O)N3CC[C@@H](NC(=O)c4cc(-c5cnn(C)c5)cnc4N)C3)c2)c1 [Example 265, (R)-2-amino-N-(1-((3′-((dimethylamino)methyl)-[1,1′-biphenyl]-3-yl)carbamoyl)pyrrolidin-3-yl)-5-(1-methyl-1H-pyrazol-4-yl)nicotinamide] | 10 to 100 |
| CN1CCN(Cc2ccc(-c3ccc(/C=C/C(=O)N4CC[C@@H](NC(=O)c5cc(-c6cnn(C)c6)cnc5N)C4)cc3)cc2)CC1 [Example 432, (R,E)-2-amino-5-(1-methyl-1H-pyrazol-4-yl)-N-(1-(3-(4′-((4-methylpiperazin-1-yl)methyl)-[1,1′-biphenyl]-4-yl)acryloyl)pyrrolidin-3-yl)nicotinamide] | > 1000 |
| Cn1cc(-c2cnc(N)c(C(=O)N[C@H]3CCN(Cc4ccccc4)C3)c2)cn1 [Example 207, (S)-2-amino-N-(1-benzylpyrrolidin-3-yl)-5-(1-methyl-1H-pyrazol-4-yl)nicotinamide] | > 1000 |
| Cn1cc(-c2cnc(N)c(C(=O)N[C@@H]3CCN(C(=O)c4ccc(-c5cccc(Cl)c5)cc4)C3)c2)cn1 [Example 360, (R)-2-amino-N-(1-(3′-chloro-[1,1′-biphenyl]-4-carbonyl)pyrrolidin-3-yl)-5-(1-methyl-1H-pyrazol-4-yl)nicotinamide] | 10 to 100 |
| Cn1cc(-c2cnc(N)c(C(=O)N[C@@H]3CCN(C(=O)Nc4cccc(-c5ccc(N6CCNCC6)nc5)c4)C3)c2)cn1 [Example 261, (R)-2-amino-5-(1-methyl-1H-pyrazol-4-yl)-N-(1-((3-(6-(piperazin-1-yl)pyridin-3-yl)phenyl)carbamoyl)pyrrolidin-3-yl)nicotinamide] | 100 to 1000 |
| Cn1cc(-c2cnc(N)c(C(=O)N[C@@H]3CCN(C(=O)Oc4cccc(-c5ccc(CNCCCO)cc5)c4)C3)c2)cn1 [Example 328, 4′-(((3-hydroxypropyl)amino)methyl)-[1,1′-biphenyl]-3-yl (R)-3-(2-amino-5-(1-methyl-1H-pyrazol-4-yl)nicotinamido)pyrrolidine-1-carboxylate] | 100 to 1000 |
| Cn1cc(-c2cnc(N)c(C(=O)N[C@@H]3CCN(Cc4cccc(-c5cccc(CO)c5)c4)C3)c2)cn1 [Example 243, (R)-2-amino-N-(1-((3′-(hydroxymethyl)-[1,1′-biphenyl]-3-yl)methyl)pyrrolidin-3-yl)-5-(1-methyl-1H-pyrazol-4-yl)nicotinamide] | 100 to 1000 |
| Cn1cc(-c2cnc(N)c(C(=O)N[C@@H]3CCN(C(=O)Oc4ccc5ccc(OCC6CCNCC6)cc5c4)C3)c2)cn1 [Example 298] | 100 to 1000 |
| Cn1cc(-c2cnc(N)c(C(=O)N[C@@H]3CCN(C(=O)c4ccc(-c5cc6ccccc6s5)cc4)C3)c2)cn1 [Example 490, (R)-2-amino-N-(1-(4-(benzo[b]thiophen-2-yl)benzoyl)pyrrolidin-3-yl)-5-(1-methyl-1H-pyrazol-4-yl)nicotinamide] | > 1000 |
| Cn1cc(-c2cnc(N)c(C(=O)N[C@@H]3CCN(C(=O)Nc4cccc(CN5CCOCC5)c4)C3)c2)cn1 [Example 26, (R)-2-amino-5-(1-methyl-1H-pyrazol-4-yl)-N-(1-((3-(morpholinomethyl)phenyl)carbamoyl)pyrrolidin-3-yl)nicotinamide] | > 1000 |
| Nc1ncc(-c2cnn(C3CCNCC3)c2)cc1C(=O)N[C@@H]1CCN(Cc2ccc(F)c(Cl)c2)C1 [Example 158, (R)-2-amino-N-(1-(3-chloro-4-fluorobenzyl)pyrrolidin-3-yl)-5-(1-(piperidin-4-yl)-1H-pyrazol-4-yl)nicotinamide] | 100 to 1000 |
| Cn1cc(-c2cnc(N)c(C(=O)N[C@@H]3CCN(C(=O)c4ccc(Oc5ccccc5)cc4)C3)c2)cn1 [Example 731, (R)-2-amino-5-(1-methyl-1H-pyrazol-4-yl)-N-(1-(4-phenoxybenzoyl)pyrrolidin-3-yl)nicotinamide] | 100 to 1000 |
| Cn1cc(-c2cnc(N)c(C(=O)N[C@@H]3CCN(C(=O)Oc4cccc(O)c4)C3)c2)cn1 [Example 101, 3-hydroxyphenyl (R)-3-(2-amino-5-(1-methyl-1H-pyrazol-4-yl)nicotinamido)pyrrolidine-1-carboxylate] | > 1000 |
| CN1CCN(Cc2ccc(-c3cccc4c(C(=O)N5CC[C@@H](NC(=O)c6cc(-c7cnn(C)c7)cnc6N)C5)cccc34)cc2)CC1 [Example 443, (R)-2-amino-5-(1-methyl-1H-pyrazol-4-yl)-N-(1-(5-(4-((4-methylpiperazin-1-yl)methyl)phenyl)-1-naphthoyl)pyrrolidin-3-yl)nicotinamide] | > 1000 |
| Cn1cc(-c2cnc(N)c(C(=O)N[C@@H]3CCN(C(=O)c4cc5cc(-c6ccccc6)ccc5o4)C3)c2)cn1 [Example 512, (R)-2-amino-5-(1-methyl-1H-pyrazol-4-yl)-N-(1-(5-phenylbenzofuran-2-carbonyl)pyrrolidin-3-yl)nicotinamide] | > 1000 |

| Compound | IC50 [nM] |
| --- | --- |
| Cn1cc(-c2cnc(N)c(C(=O)N[C@@H]3CCN(CCCc4ccccc4)C3)c2)cn1 [Example 227, (R)-2-amino-5-(1-methyl-1H-pyrazol-4-yl)-N-(1-(3-phenylpropyl)pyrrolidin-3-yl)nicotinamide] | > 1000 |
| Nc1ncc(-c2cnn(C3CCNCC3)c2)cc1C(=O)N[C@@H]1CCN(Cc2c(Cl)cccc2Cl)C1 [Example 159, (R)-2-amino-N-(1-(2,6-dichlorobenzyl)pyrrolidin-3-yl)-5-(1-(piperidin-4-yl)-1H-pyrazol-4-yl)nicotinamide] | > 1000 |
| Cn1cc(-c2cnc(N)c(C(=O)N[C@@H]3CCN(C(=O)c4cccc(-c5cccc(C(=O)O)c5)c4)C3)c2)cn1 [Example 456, (R)-3′-(3-(2-amino-5-(1-methyl-1H-pyrazol-4-yl)nicotinamido)pyrrolidine-1-carbonyl)-[1,1′-biphenyl]-3-carboxylic acid] | > 1000 |
| Cc1cnc(-c2ccc(C(=O)N3CC[C@@H](NC(=O)c4cc(-c5cnn(C)c5)cnc4N)C3)cc2)s1 [Example 543, (R)-2-amino-5-(1-methyl-1H-pyrazol-4-yl)-N-(1-(4-(5-methylthiazol-2-yl)benzoyl)pyrrolidin-3-yl)nicotinamide] | 100 to 1000 |
| Cn1cc(-c2cnc(N)c(C(=O)N[C@@H]3CCN(C(=O)c4ccc(-c5ccc(Cl)cc5Cl)cc4)C3)c2)cn1 [Example 361, (R)-2-amino-N-(1-(2′,4′-dichloro-[1,1′-biphenyl]-4-carbonyl)pyrrolidin-3-yl)-5-(1-methyl-1H-pyrazol-4-yl)nicotinamide] | 10 to 100 |
| Cn1cc(-c2cnc(N)c(C(=O)N[C@@H]3CCN(C(=O)c4ccc(C#N)cc4)C3)c2)cn1 [Example 419, (R)-2-amino-N-(1-(4-cyanobenzoyl)pyrrolidin-3-yl)-5-(1-methyl-1H-pyrazol-4-yl)nicotinamide] | > 1000 |
| Cn1cc(-c2cnc(N)c(C(=O)N[C@@H]3CCN(C(=S)Nc4ccc([N+](=O)[O-])cc4)C3)c2)cn1 [Example 47, (R)-2-amino-5-(1-methyl-1H-pyrazol-4-yl)-N-(1-((4-nitrophenyl)carbamothioyl)pyrrolidin-3-yl)nicotinamide] | > 1000 |
| Cn1cc(-c2cnc(N)c(C(=O)N[C@@H]3CCN(C(=O)O[C@H]4C[C@H]5CC[C@@H]4C5)C3)c2)cn1 [Example 105, (1R,2S,4S)-bicyclo[2.2.1]heptan-2-yl (R)-3-(2-amino-5-(1-methyl-1H-pyrazol-4-yl)nicotinamido)pyrrolidine-1-carboxylate] | > 1000 |
| Cn1cc(-c2cnc(N)c(C(=O)N[C@@H]3CCN(C(=O)Oc4ccccc4OCc4ccccc4)C3)c2)cn1 [Example 58, 2-(benzyloxy)phenyl (R)-3-(2-amino-5-(1-methyl-1H-pyrazol-4-yl)nicotinamido)pyrrolidine-1-carboxylate] | > 1000 |
| Cn1cc(-c2cnc(N)c(C(=O)N[C@@H]3CCN(C(=O)Oc4cccc(-c5ccc(CN6CCC[C@@H](N)C6)cc5)c4)C3)c2)cn1 [Example 316, 4′-(((R)-3-aminopiperidin-1-yl)methyl)-[1,1′-biphenyl]-3-yl (R)-3-(2-amino-5-(1-methyl-1H-pyrazol-4-yl)nicotinamido)pyrrolidine-1-carboxylate] | 100 to 1000 |
| Cn1cc(-c2cnc(N)c(C(=O)N[C@@H]3CCN(Cc4ccc(-c5ccccc5)cc4)C3)c2)cn1 [Example 226, (R)—N-(1-([1,1′-biphenyl]-4-ylmethyl)pyrrolidin-3-yl)-2-amino-5-(1-methyl-1H-pyrazol-4-yl)nicotinamide] | > 1000 |
| Nc1ncc(-c2cnn(C3CCNCC3)c2)cc1C(=O)N[C@@H]1CCN(Cc2ccc(F)cc2)C1 [Example 153, (R)-2-amino-N-(1-(4-fluorobenzyl)pyrrolidin-3-yl)-5-(1-(piperidin-4-yl)-1H-pyrazol-4-yl)nicotinamide] | 100 to 1000 |
| CNc1ccc(-c2cccc(NC(=O)N3CC[C@@H](NC(=O)c4cc(-c5cnn(C)c5)cnc4N)C3)c2)cc1 [Example 262, (R)-2-amino-5-(1-methyl-1H-pyrazol-4-yl)-N-(1-((4′-(methylamino)-[1,1′-biphenyl]-3-yl)carbamoyl)pyrrolidin-3-yl)nicotinamide] | 100 to 1000 |
| Cn1cc(-c2cnc(N)c(C(=O)N[C@@H]3CCN(c4ccccn4)C3)c2)cn1 [Example 135, (R)-2-amino-5-(1-methyl-1H-pyrazol-4-yl)-N-(1-(pyridin-2-yl)pyrrolidin-3-yl)nicotinamide] | > 1000 |
| (R)-2-amino-N-(1-(3,5-dihydroxy-2-naphthoyl)pyrrolidin-3-yl)-5-(1-methyl-1H-pyrazol-4-yl)nicotinamide [Example 668] | > 1000 |
| Cn1cc(-c2cnc(N)c(C(=O)N[C@@H]3CCN(C(=O)c4cccc(-c5cccc(Cl)c5)c4)C3)c2)cn1 [Example 479, (R)-2-amino-N-(1-(3′-chloro-[1,1′-biphenyl]-3-carbonyl)pyrrolidin-3-yl)-5-(1-methyl-1H-pyrazol-4-yl)nicotinamide] | > 1000 |

From patent publication US12378224B2 (Dong-A Socio Holdings Co., Ltd., priority 2016, dated 2025)
